# Measured values taken from patent publication US10538512B2, “Aminoacylindazole immunomodulators for treatment of autoimmune diseases” (The Rockefeller University, priority 2016, dated 2020).
# Molecular target: T1, Human FXIIa (Homo sapiens, UniProt P00748)
# T1 construct: active coagulation factor XII (FXIIa); purchased Enzyme Research Labs
# T1 sequence (P00748 373-615 limits assumed): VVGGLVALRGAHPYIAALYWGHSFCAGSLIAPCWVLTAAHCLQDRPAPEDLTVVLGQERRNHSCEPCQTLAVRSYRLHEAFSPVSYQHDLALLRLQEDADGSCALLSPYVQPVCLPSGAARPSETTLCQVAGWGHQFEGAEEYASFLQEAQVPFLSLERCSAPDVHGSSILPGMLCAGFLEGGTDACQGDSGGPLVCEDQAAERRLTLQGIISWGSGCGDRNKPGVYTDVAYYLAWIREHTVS
# T1 sequence (P00748 20-372 partner limits assumed): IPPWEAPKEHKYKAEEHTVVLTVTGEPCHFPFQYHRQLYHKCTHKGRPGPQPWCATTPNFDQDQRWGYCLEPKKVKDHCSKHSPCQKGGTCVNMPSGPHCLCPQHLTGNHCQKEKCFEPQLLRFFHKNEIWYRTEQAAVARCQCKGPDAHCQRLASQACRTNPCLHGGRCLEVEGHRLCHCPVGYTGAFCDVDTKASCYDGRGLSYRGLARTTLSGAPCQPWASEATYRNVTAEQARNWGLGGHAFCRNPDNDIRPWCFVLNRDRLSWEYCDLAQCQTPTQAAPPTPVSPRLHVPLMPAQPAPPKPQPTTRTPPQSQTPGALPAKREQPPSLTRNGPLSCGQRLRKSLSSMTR
# Assay: Factor XIIa (FXIIa) inhibitory activity, chromogenic substrate assay
# Format: biochemical
# Settings: Human FXIIa 12.5 nM, Pefachrome XIIa 400 μM, 10 min preincubation
# Description: Factor XIIa (FXIIa) Inhibitory Activity:
# In a 96-well clear bottom plate, 80 μl of assay buffer was added to each well. Assay buffer consists of 0.5× Hank's Balanced Salt Solution (Invitrogen), buffered with 25 mM HEPES pH 7.4 (Invitrogen) and 0.5× Tris-buffered saline with Tween-20 0.05% (Santa Cruz Biotechnology). Test compounds were first dissolved in DMSO (Sigma) and then 4 μl were added to test wells containing assay buffer. Serial dilutions using an automated multi-channel pipette were used to generate a concentration range of approximately 1-100 μM. […] 80 μl of this enzyme solution was added to the assay wells. The enzyme/compound mixtures were incubated for 10 minutes at room temperature. Chromogenic substrate (Pefachrome XIIa; Enzyme Research Labs) was added to assay wells at a final concentration of 400 μM. The assay plate was spun for 1 minute at 1500 g and then read at 37° C. in a SpectraMax M2 plate reader (λ=405 nm). Activity was quantified as the rate of change in absorbance, which corresponds to the rate of substrate cleavage.
row,Structure (SMILES),IC50
1,"Nc1c2c(nn1C(=O)C1CCCc3[nH]c(Cl)cc31)CCCC2 (single isomer, unassigned) [Example 106, (S*)-(3-amino-4,5,6,7-tetrahydro-2H-indazol-2-yl)(2-chloro-4,5,6,7-tetrahydro-1H-indol-4-yl)methanone]",40 nM
2,"CCc1cc2c(C(=O)n3nc4c(c3N)CCCC4)ccnc2[nH]1 [Example 113, (3-amino-4,5,6,7-tetrahydro-2H-indazol-2-yl)(2-ethyl-1H-pyrrolo[2,3-b]pyridin-4-yl)methanone]",50 nM
3,"Nc1nn(C(=O)[C@H]2CCNc3ccc(Cl)cc32)c2c1C[C@@H](O)CC2 (single isomer, unassigned) [Example 146, ((5S*)-3-amino-5-hydroxy-4,5,6,7-tetrahydroindazol-1-yl)((4S*)-6-chloro-1,2,3,4-tetrahydroquinolin-4-yl)methanone]",> 80000 nM
4,"Nc1c2c(nn1C(=O)[C@H]1CCNc3c(Cl)cccc31)C[C@@H](O)CC2 (single isomer, unassigned) [Example 207, ((6S*)-3-amino-6-hydroxy-4,5,6,7-tetrahydroindazol-2-yl)((4S*)-8-chloro-1,2,3,4-tetrahydroquinolin-4-yl)methanone]",160 nM
5,"CCc1cc2c(C(=O)n3nc4c(c3N)CCCC4)cccc2n1C (single isomer, unassigned) [Example 66, (3-amino-4,5,6,7-tetrahydroindazol-2-yl)(2-ethyl-1-methyl-1H-indol-4-yl)methanone]",10 nM
6,"CN1CCC(C(=O)n2nc3c(c2N)CCCC3)c2ccccc21 (single isomer, unassigned) [Example 72, (S*)-(3-amino-4,5,6,7-tetrahydroindazol-2-yl)(1-methyl-1,2,3,4-tetrahydroquinolin-4-yl)methanone]",150 nM
7,"Nc1nn(C(=O)C2CCCc3[nH]ccc32)c2c1CCCC2 (stereo not shown) [Example 93, (3-amino-4,5,6,7-tetrahydroindazol-1-yl)(4,5,6,7-tetrahydro-1H-indol-4-yl)methanone]",> 100000 nM
8,"Nc1nn(C(=O)C2CCNc3ccc(F)cc32)c2c1CC(F)CC2 (single isomer, unassigned) [Example 139, ((5R*)-3-amino-5-fluoro-4,5,6,7-tetrahydroindazol-1-yl)((4RS)-6-fluoro-1,2,3,4-tetrahydroquinolin-4-yl)methanone]",85000 nM
9,"Cc1cccc2c1NCC[C@@H]2C(=O)n1nc2c(c1N)CC[C@@H](O)C2 (single isomer, unassigned) [Example 199, ((6R*)-3-amino-6-hydroxy-4,5,6,7-tetrahydroindazol-2-yl)((4S*)-8-methyl-1,2,3,4-tetrahydroquinolin-4-yl)methanone]",40 nM
10,"Nc1c2c(nn1C(=O)[C@@H]1CCNc3ccc(F)cc31)C[C@H](O)CC2 (single isomer, unassigned) [Example 184, ((6R*)-3-amino-6-hydroxy-4,5,6,7-tetrahydroindazol-2-yl)((4R*)-6-fluoro-1,2,3,4-tetrahydroquinolin-4-yl)methanone]",> 100000 nM
11,"Nc1nn(C(=O)C2CCNc3c(Cl)cccc32)c2c1CC(O)CC2 (single isomer, unassigned) [Example 205, ((5R*)-3-amino-5-hydroxy-4,5,6,7-tetrahydroindazol-1-yl)(8-chloro-1,2,3,4-tetrahydroquinolin-4-yl)methanone]",> 100000 nM
12,"Nc1nn(C(=O)[C@@H]2CCNc3c(Cl)cccc32)c2c1CC[C@@H](O)C2 (single isomer, unassigned) [Example 212, ((6R*)-3-amino-6-hydroxy-4,5,6,7-tetrahydroindazol-1-yl)((4R*)-8-chloro-1,2,3,4-tetrahydroquinolin-4-yl)methanone]",> 100000 nM
13,"Cc1[nH]c2ccccc2c1C(=O)n1nc2c(c1N)CCCC2 [Example 44, (3-amino-4,5,6,7-tetrahydroindazol-2-yl)(2-methyl-1H-indol-3-yl)methanone]",11000 nM
14,"Nc1c2c(nn1C(=O)C1CCNc3ccc(F)cc31)CCC(NC(=O)OCc1ccccc1)C2 (single isomer, unassigned) [Example 186, benzyl (5R*)-3-amino-2-(6-fluoro-1,2,3,4-tetrahydroquinoline-4-carbonyl)-4,5,6,7-tetrahydro-2H-indazol-5-ylcarbamate]",2500 nM
15,"Cc1cc2c(C(=O)n3nc4c(c3N)CCCC4)cccc2n1C(C)C [Example 49, (3-amino-4,5,6,7-tetrahydroindazol-2-yl)(1-isopropyl-2-methyl-1H-indol-4-yl)methanone]",20 nM
16,"Nc1nn(C(=O)[C@@H]2CCNc3ccc(Cl)cc32)c2c1C[C@H](O)CC2 (single isomer, unassigned) [Example 149, ((5R*)-3-amino-5-hydroxy-4,5,6,7-tetrahydroindazol-1-yl)((4R*)-6-chloro-1,2,3,4-tetrahydroquinolin-4-yl)methanone]",> 40000 nM
17,"Nc1c2c(nn1C(=O)[C@@H]1CCNc3ccc(F)cc31)C[C@@H](O)CC2 (single isomer, unassigned) [Example 182, ((6S*)-3-amino-6-hydroxy-4,5,6,7-tetrahydroindazol-2-yl)((4R*)-6-fluoro-1,2,3,4-tetrahydroquinolin-4-yl)methanone]",> 100000 nM
18,"Nc1c2c(nn1C(=O)[C@H]1CCNc3ccc(F)cc31)CC[C@@H](N)C2 (stereo in doubt) [Example 189, ((5R*)-3,5-diamino-4,5,6,7-tetrahydroindazol-2-yl)((4S*)-6-fluoro-1,2,3,4-tetrahydroquinolin-4-yl)methanone]",3000 nM
19,"Nc1c2c(nn1C(=O)c1cccc3[nH]ncc13)CCCC2 [Example 47, (3-amino-4,5,6,7-tetrahydroindazol-2-yl)(1H-indazol-4-yl)methanone]",30 nM
20,"Nc1c2c(nn1C(=O)[C@H]1CCNc3c(Cl)cccc31)CC[C@@H](O)C2 (single isomer, unassigned) [Example 204, ((5R*)-3-amino-5-hydroxy-4,5,6,7-tetrahydroindazol-2-yl)((4S*)-8-chloro-1,2,3,4-tetrahydroquinolin-4-yl)methanone]",40 nM
21,"Cc1cccc2c1NCC[C@H]2C(=O)n1nc2c(c1N)C[C@H](O)CC2 (single isomer, unassigned) [Example 217, ((5R*)-3-amino-5-hydroxy-4,5,6,7-tetrahydro-2H-indazol-2-yl)((4R*)-8-methyl-1,2,3,4-tetrahydroquinolin-4-yl)methanone]",35000 nM
22,"Cn1ccc2c1CCCC2C(=O)n1nc2c(c1N)CCCC2 (single isomer, unassigned) [Example 97, (S*)-(3-amino-4,5,6,7-tetrahydroindazol-2-yl)(1-methyl-4,5,6,7-tetrahydro-1H-indol-4-yl)methanone]",400 nM
23,"Cc1cc2c(C(=O)n3nc4c(c3N)CC(OCc3ccccc3)CC4)cccc2[nH]1 (stereo not shown) [Example 117, (3-amino-5-(benzyloxy)-4,5,6,7-tetrahydroindazol-2-yl)(2-methyl-1H-indol-4-yl)methanone]",30 nM
24,"Nc1c2c(nn1C(=O)c1cccc3c1CC(=O)N3)CCCC2 (single isomer, unassigned) [Example 64, 4-(3-amino-4,5,6,7-tetrahydro-2H-indazole-2-carbonyl)indolin-2-one]",200 nM
25,"Nc1c2c(nn1C(=O)C1CCCc3[nH]c(Br)cc31)CCCC2 (single isomer, unassigned) [Example 108, (S*)-(3-amino-4,5,6,7-tetrahydroindazol-2-yl)(2-bromo-4,5,6,7-tetrahydro-1H-indol-4-yl)methanone]",70 nM
26,"Nc1c2c(nn1C(=O)[C@@H]1CCNc3ccc(F)cc31)CC[C@H](N)C2 (stereo in doubt) [Example 193, ((5S*)-3,5-diamino-4,5,6,7-tetrahydroindazol-2-yl)((4R*)-6-fluoro-1,2,3,4-tetrahydroquinolin-4-yl)methanone]",4000 nM
27,"Nc1c2c(nn1C(=O)[C@H]1CCNc3c(Cl)cccc31)CC[C@H](N)C2 (relative stereo) [Example 215, ((4S*)-8-chloro-1,2,3,4-tetrahydroquinolin-4-yl)((5S*)-3,5-diamino-4,5,6,7-tetrahydroindazol-2-yl)methanone]",70 nM
28,"CO[C@@H]1CCc2nn(C(=O)[C@H]3CCNc4ccc(F)cc43)c(N)c2C1 (single isomer, unassigned) [Example 179, ((5R*)-3-amino-5-methoxy-4,5,6,7-tetrahydroindazol-2-yl)((4S*)-6-fluoro-1,2,3,4-tetrahydroquinolin-4-yl)methanone]",28000 nM
